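GI50 marks 50% less growth. TGI: concentration producing complete growth inhibition.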
Columns and labels:
Assay in all cases: NCI tumour cell line growth inhibition, 384-well format
SF-295 CNS = system: SF-295 CNS
MCF7 breast = system: MCF7 breast
HT29 colon = system: HT29 colon
MDA-MB-231 breast = system: MDA-MB-231 breast
SK-MEL-2 melanoma = system: SK-MEL-2 melanoma
NCI-H23 lung = system: NCI-H23 lung
HCT-15 colon = system: HCT-15 colon
SR leukemia = system: SR leukemia
RXF 393 renal = system: RXF 393 renal
HCC-2998 colon = system: HCC-2998 colon
MDA-MB-435 melanoma = system: MDA-MB-435 melanoma
HL-60(TB) leukemia = system: HL-60(TB) leukemia
SW-620 colon = system: SW-620 colon
NCI-H522 lung = system: NCI-H522 lung
HOP-62 NSCLC = system: HOP-62 NSCLC
HCT-116 colon = system: HCT-116 colon
U251 glioblastoma = system: U251 glioblastoma
CAKI-1 renal = system: CAKI-1 renal
SF-539 CNS = system: SF-539 CNS
786-0 renal = system: 786-0 renal
SNB-75 CNS = system: SNB-75 CNS
ACHN renal = system: ACHN renal
T-47D breast = system: T-47D breast
SK-MEL-28 melanoma = system: SK-MEL-28 melanoma
SF-268 CNS = system: SF-268 CNS
BT-549 breast = system: BT-549 breast
EKVX NSCLC = system: EKVX NSCLC
A498 renal = system: A498 renal
NCI/ADR-RES ovarian = system: NCI/ADR-RES ovarian
RPMI-8226 leukemia = system: RPMI-8226 leukemia

N#Cc1ccnc(N2C(=O)CC[C@H]2C(=O)N(c2cncc(F)c2)[C@H](C(=O)NC2CC(F)(F)C2)c2ccccc2Cl)c1 was tested, and the GI50 (SF-295 CNS) was over 100 µM, the TGI (SF-295 CNS) was over 100 µM and the GI50 (MCF7 breast) was over 100 µM. The TGI (MCF7 breast) was over 100 µM, the GI50 (HT29 colon) was over 95.3 µM and the TGI (HT29 colon) was over 100 µM. It also gave a GI50 (MDA-MB-231 breast) of over 100 µM, a TGI (MDA-MB-231 breast) of over 100 µM and a GI50 (SK-MEL-2 melanoma) of over 100 µM. The TGI (SK-MEL-2 melanoma) was over 100 µM, the GI50 (NCI-H23 lung) was over 89.5 µM and the TGI (NCI-H23 lung) was over 100 µM. The GI50 (HCT-15 colon) was over 100 µM, the TGI (HCT-15 colon) was over 100 µM and the GI50 (SR leukemia) was 31.4 µM. The TGI (SR leukemia) was over 95.8 µM, the GI50 (RXF 393 renal) was over 77.2 µM and the TGI (RXF 393 renal) was over 100 µM. For the same compound, the GI50 (HCC-2998 colon) was over 100 µM, the TGI (HCC-2998 colon) was over 100 µM and the GI50 (MDA-MB-435 melanoma) was over 100 µM. For the same compound, the TGI (MDA-MB-435 melanoma) was over 100 µM, the GI50 (HL-60(TB) leukemia) was over 100 µM and the TGI (HL-60(TB) leukemia) was over 100 µM. For the same compound, the GI50 (SW-620 colon) was over 100 µM, the TGI (SW-620 colon) was over 100 µM and the GI50 (NCI-H522 lung) was 97.9 µM. For the same compound, the TGI (NCI-H522 lung) was over 100 µM, the GI50 (HOP-62 NSCLC) was over 100 µM and the TGI (HOP-62 NSCLC) was over 100 µM. For the same compound, the GI50 (HCT-116 colon) was 28.6 µM, the TGI (HCT-116 colon) was over 100 µM and the GI50 (U251 glioblastoma) was over 100 µM. The TGI (U251 glioblastoma) was over 100 µM, the GI50 (CAKI-1 renal) was over 55.4 µM and the TGI (CAKI-1 renal) was over 82.9 µM. For the same compound, the GI50 (SF-539 CNS) was over 100 µM, the TGI (SF-539 CNS) was over 100 µM and the GI50 (786-0 renal) was over 100 µM. For the same compound, the TGI (786-0 renal) was over 100 µM, the GI50 (SNB-75 CNS) was over 100 µM and the TGI (SNB-75 CNS) was over 100 µM. It also gave a GI50 (ACHN renal) of over 100 µM, a TGI (ACHN renal) of over 100 µM and a GI50 (T-47D breast) of over 100 µM. For the same compound, the TGI (T-47D breast) was over 100 µM, the GI50 (SK-MEL-28 melanoma) was over 100 µM and the TGI (SK-MEL-28 melanoma) was over 100 µM. The GI50 (SF-268 CNS) was over 100 µM, the TGI (SF-268 CNS) was over 100 µM and the GI50 (BT-549 breast) was over 100 µM. The TGI (BT-549 breast) was over 100 µM, the GI50 (EKVX NSCLC) was over 100 µM and the TGI (EKVX NSCLC) was over 100 µM. It also gave a GI50 (A498 renal) of over 100 µM, a TGI (A498 renal) of over 100 µM and a GI50 (NCI/ADR-RES ovarian) of over 100 µM. The TGI (NCI/ADR-RES ovarian) was over 100 µM, the GI50 (RPMI-8226 leukemia) was over 100 µM and the TGI (RPMI-8226 leukemia) was over 100 µM.
